Measurements reported in ChEMBL document CHEMBL2016461, “A new pancreatic lipase inhibitor from Broussonetia kanzinoki” (Bioorg Med Chem Lett, 2012).
Activity calls are given as the source filed them. No cut-off for these calls is given here.

What was measured:
[1] = target: T1, Pancreatic triacylglycerol lipase (Sus scrofa) (UniProt P00591); assay: Inhibition of porcine pancreatic lipase using p-nitrophenylbutyrate as substrate at 100 uM preincubated for 15 mins prior substrate addition measured after 15 mins by spectrophotometry
T1 sequence (whole entry): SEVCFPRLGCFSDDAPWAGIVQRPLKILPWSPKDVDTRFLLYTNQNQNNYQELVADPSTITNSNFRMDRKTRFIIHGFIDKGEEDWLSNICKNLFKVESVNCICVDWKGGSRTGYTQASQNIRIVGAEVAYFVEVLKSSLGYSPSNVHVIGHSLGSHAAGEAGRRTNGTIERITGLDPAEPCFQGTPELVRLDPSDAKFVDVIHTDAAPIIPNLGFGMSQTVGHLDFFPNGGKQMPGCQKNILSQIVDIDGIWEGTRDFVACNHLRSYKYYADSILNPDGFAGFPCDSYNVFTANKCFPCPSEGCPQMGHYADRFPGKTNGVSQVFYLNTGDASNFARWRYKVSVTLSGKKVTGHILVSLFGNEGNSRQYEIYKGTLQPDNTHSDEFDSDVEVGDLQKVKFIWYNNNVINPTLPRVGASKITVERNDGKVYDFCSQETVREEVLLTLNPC

[2] = target: T2, Pancreatic triacylglycerol lipase (Sus scrofa, UniProt P00591); assay: Inhibition of porcine pancreatic lipase using p-nitrophenylbutyrate as substrate preincubated for 15 mins prior substrate addition measured after 15 mins by spectrophotometry
T2 sequence (P00591 whole entry): T1 sequence (whole entry)

[3] = target: T1, Pancreatic triacylglycerol lipase (Sus scrofa); conditions: 1 uM
Description: Inhibition of porcine pancreatic lipase using p-nitrophenylbutyrate as substrate at 1 uM preincubated for 15 mins prior substrate addition measured after 15 mins by spectrophotometry

3T3-L1 [4] = assay: Antiadipogenic activity in mouse 3T3L1 cells assessed as cell differentiation measuring inhibition of fat accumulation at 100 uM after 8 days by oil red O-staining based spectrophotometry relative to control; format: functional; conditions: 3T3-L1, 192 h
[5] = target: T1, Pancreatic triacylglycerol lipase (Sus scrofa); assay: Non-competitive inhibition of porcine pancreatic lipase using p-nitrophenylbutyrate as substrate preincubated for 15 mins prior substrate addition measured after 15 mins by Lineweaver-Burk plot analysis
3T3-L1 [6] = assay: Antiadipogenic activity in mouse 3T3L1 cells assessed as cell differentiation measuring fat accumulation at 100 uM after 8 days by oil red O-staining based spectrophotometry relative to control; format: functional

inhibition [1]	IC50 [2]	inhibition [3]	inhibition [5]	Structure (SMILES)	inhibition at 100 µM (3T3-L1 [4])	Activity (3T3-L1 [6])
55.6%	85.1 µM			Oc1ccc(C2CCc3ccc(O)cc3O2)cc1 (stereo not drawn)		
38.2%	> 100 µM			COc1ccc(-c2oc3cc(O)ccc3c(=O)c2O)cc1O		
24.8%	> 100 µM			COc1ccc(C2CCc3ccc(O)cc3O2)cc1O (stereo not drawn)		
		60.4%		CCCCCCCCCCC[C@@H](C[C@@H]1OC(=O)[C@H]1CCCCCC)OC(=O)[C@H](CC(C)C)NC=O		
40.4%	75.4 µM			COc1cc(O)ccc1CCCc1ccc(O)cc1 [BROUSSONIN B]	48%	
50.7%	98.7 µM			COc1ccc(CCCc2ccc(O)cc2)c(O)c1 [BROUSSONIN A]		
71.9%	28.4 µM		Active	COC1=CC(=O)C=CC1(O)CCCc1ccc(O)cc1 (stereo not drawn) [BROUSSONONE A]		66%
21.8%	> 100 µM			COc1ccc(-c2oc3cc(O)ccc3c(=O)c2O)cc1		
